In patent US20170223976A1, “MODIFIED MILK POWDER CONTAINING 1,5-ANHYDRO-D-GLUCITOL” (NIHON STARCH CO., LTD., priority 2015, published 2017):

System: PSG-1 gene
Test: PSG-1 gene expression in intestinal tract cells (Caco-2), real-time RT-PCR
Format: cell-based
Conditions: Caco-2 cells; for expression level of PSG-1 gene relative to non-added section: 3 days
Protocol: PSG-1 is a gene which is expressed in placental cells in large quantities in pregnancy. The influence of 1,5-AG upon the expression of PSG-1 in intestinal tract cells which is not connected with pregnancy was investigated.
A test was carried out at five concentrations (1.6, 8, 40, 200 and 1,000 μg/mL) of 1,5-AG. Stated more specifically, a 1,5-AG aqueous solution having a concentration of 100 mg/mL was diluted with water to prepare 100 times-concentrated solutions having concentrations of 0.16, 0.8, 4, 20 and 100 mg/mL. These 100 times-concentrated solutions were each added to a medium in a ratio of 1/100 to achieve final concentrations of […] and sterilized with a filter to be used in the test. As a negative control, water was added to a medium in a ratio of 1/100 and sterilized with a filter to be used in the test.
A medium was used to adjust Caco-2 cells to a concentration of 1×10^5 cells/0.3 mL/well, and the cells were scattered on a 48-well plate to be cultured in a CO2 incubator (5% CO2, 37° C.) for 14 days (medium was exchanged every other day). After culture, it was confirmed that the cells were differentiated into intestinal epidermoid cells, the medium was replaced by a sample-containing test medium and a control-containing test medium to culture the cells in a CO2 incubator for 3 days, and total RNA was extracted from the cells to analyze the expression level of PSG-1 gene. These procedures were repeated five times each.
Total RNA was extracted by using the FastLane Cell cDNA kit. […]
The synthesis of cDNA was carried out by using the QuantiTect reverse transcription kit. […]
Real-time PCT was carried out by an intercalator method using SYBR Green I. Stated more specifically, a total of an 8 μL system consisting of 1 μL of synthesized cDNA, 2.6 μL of dsH2O, 4 μL of SYBR Premix ExTag, 0.2 μL of Forward primer (5 μM) and 0.2 μL of Reverse primer (5 μM) was used. […] The relative expression level was calculated by the ? […]

Q: What does the source list for `OC[C@H]1OC[C@H](O)[C@@H](O)[C@@H]1O` [1,5-AG, 1,5-anhydro-D-glucitol]?
A: expression level of PSG-1 gene relative to non-added section (8 μg/mL): 1.31 times; expression level of PSG-1 gene relative to non-added section (40 μg/mL): 1.34 times; average expression level of PSG-1 gene versus non-added section (3 days, 1,5-AG added section): tends to become higher
